Data from patent publication US6855801B1, “Peptides modulating activities of heparin other glycosaminoglycans or proteoglycans” (Thomas Jefferson University, priority 1999, dated 2005).
pKd: −log10 of the molar value. “And” between values parts separate entries of the source, which are not always exact repeats. Identical values can stand only once. Like-named read-outs stand apart in the source and are kept apart here.

Legend:
Lovenox = experiment: Reversal of anti-Factor Xa activity in vitro (Stachrom Heparin chromogenic assay), Lovenox; format: biochemical, human; settings: for Percent Reversal of anti-Factor Xa Activity, Lovenox: 0.5 U/ml anti-Factor Xa activity
Procedure: (§1) Solutions of Lovenox, Orgaran, or unfractionated heparin (Sigma) were prepared in 0.32% sodium citrate or in normal human plasma to contain 0.5 U/ml anti-FXa activity. Calibrations were made against the standards provided by the Stachrom Heparin (Diagnostica Stago) assay kit. The heparin/ATIII complex was allowed to form at 37° C. for 2 minutes, peptide was added, the mixture was incubated for an additional 1-5 minutes, and then Factor Xa was added, and finally the color reagent, for one minute, and the absorbance was read at 405 nm. The increase in absorbance from the heparinized control to the test sample was divided by the difference in A405 between the heparinized control and the control without heparin to obtain the % reversal.

unfractionated heparin [1] = experiment: Reversal of anti-thrombin effects of unfractionated heparin in vitro (thrombin clotting time in plasma); format: biochemical, human; settings: heparin 0.5 U/ml; thrombin standardized to clotting time 20-22 seconds
Procedure: Plasma was obtained from normal donors. Thrombin concentration (human alpha thrombin, Enzyme Research Laboratories, South Bend, Ind.) was standardized to produce a clotting time of 20-22 seconds. Heparin was added at 0.5 IU anti-thrombin activity/ml. The clotting time for heparin alone was approximately 3 minutes. To test the effects of the peptides in this system, one minute after addition of heparin to the plasma, the peptides were added in concentrations ranging from 1-200 μg/ml. After one minute, thrombin was added and the clotting time determined. The effects of the peptides were concentration dependent. The clotting time was restored to normal values in all samples at the dosages shown below in Table III. The ability of the peptides to neutralize heparin inhibition of thrombin clotting time was consistent with the binding affinities shown in Table I, and with the effectiveness against low molecular weight heparin anti-Factor Xa activity in Table II.

[2] = Affinity coelectrophoresis (ACE) of radiolabeled heparin through peptides; format: binding, pig; settings: for heparin-binding affinity in words: ACE, low Mr heparin
Excerpt: Preparation of Radiolabeled Heparin—Whole heparin from pig intestinal mucosa (Sigma) was tyramine end-labeled and radiolabeled with Na^125I (Amersham, Pharmacia Biotech, Inc., Piscataway, N.J.) to an average specific activity ≅1.0×10^7 CPM/μg as described^59. Radiolabeled heparin was fractionated on Sephadex G-100 (Bio-Rad Laboratories, Hercules, Calif.) and the final ≅12% of material to elute was retained as the low Mr material of ≦6,000 (Jordan, R., D. Beeler, and R. Rosenberg, J Biol Chem, 254:2902-2913, 1979; Laurent, T. C., et al., Biochem J, 175:691-701, 1978).
(§2) Briefly, peptides were dissolved in 1×ACE running buffer, 50 mM sodium 3-(N-morpholino)-2-hydroxypropanesulfonate (MOPSO, Sigma)/125 mM sodium acetate, pH 7.0, and serially diluted in running buffer at 2× concentrations. Peptides were then mixed 1:1 with 2% agarose/1% CHAPS, 3-[(3-cholamidopropyl)dimethylammonio]-1-propanesulfonate, (Boehringer Mannheim, Indianapolis, Ind.), and loaded into wells of a 1% agarose gel. Radiolabeled heparin or HUVEC PGs were then loaded in a slot on the […] side of the gel, and electrophoresed through the peptide-containing wells, towards the cathode. Gels were dried and PG mobility was measured with a Phosphorimager (Molecular Dynamics, Sunnyvale, Calif.) by scanning each protein lane and determining the relative radioactivity content per. 88-μm pixel through the length of the lane. Retardation coefficient (R) measurements, binding isotherm curve fittings, and apparent Kd value determinations were calculated as detailed previously (Lee, M. K., and A. D. Lander, Proc Nat Acad Sci USA, 88:2768-2772, 1991; San Antonio, J. D., et al, Biochem, 32:47464755, 1993).
Some peptides were also analyzed by ACE for heparin-binding under reducing conditions. Thus, after serial peptide dilution, β-mercaptoethanol (β-ME) was added at 5% to each peptide sample, and these were mixed 1:1 with 2% agarose/1% CHAPS/5% β-ME, and added to the ACE gel sample wells as usual.

unfractionated heparin [3] = experiment: Reversal of anti-Factor Xa activity in vitro (Stachrom Heparin chromogenic assay), unfractionated heparin; format: biochemical, human; settings: for Percent Reversal of anti-Factor Xa Activity, Heparin (unfractionated): 0.5 U/ml anti-Factor Xa activity
Procedure: as §1

Orgaran = experiment: Reversal of anti-Factor Xa activity in vitro (Stachrom Heparin chromogenic assay), Orgaran; format: biochemical, human; settings: for Percent Reversal of anti-Factor Xa Activity, Orgaran: 0.5 U/ml anti-Factor Xa activity
Procedure: as §1

HUVEC PGs = experiment: ACE of HUVEC PGs/GAGs through peptide; format: binding, human
Procedure: as §2
Binding analysis of peptides to enzymatically or chemically degraded PGs (see below) was carried out by ACE as detailed, except that PG samples included 6 M urea to denature any residual enzymes.
Cell Culture—HUVEC were isolated as detailed elsewhere (Gimbrone, M. A., In Progress in Hematology and Thrombosis. Vol. III. B. S. Collen, editor. W B Saunders, Philadelphia. 1-28, 1976) and were used up to passage seven. Cells were cultured on 0.2% gelatin-coated tissue culture flasks in normal culture media composed of medium 199 (Gibco BRL, Gaithersburg, Md.), 10% fetal bovine serum (FBS, Mediatech Inc.), 80 μg/ml endothelial cell growth supplement isolated from bovine hypothalami as described (Maciag, T., et al., Proc Nat Acad Sci USA, 76 (11):5674-5678, 1979), 50 μg/ml heparin (porcine intestinal mucosa, grade 1A, Sigma) 1% penicillin-streptomycin, and 0.1% fungizone.
Radiolabeling and Isolation of Total HUVEC PGs and GAGs—Exponentially growing, subconfluent HUVEC were labeled with 35μCi/ml ^35S-Na2SO4 (ICN Pharmaceuticals, Costa Mesa, Calif.) in normal culture media minus heparin for 12 h. Culture media and cell layers were harvested separately. After removal of the media, cells were washed with 2.0 ml PBS plus Ca^2+-Mg^2′. Media and rinses were pooled and brought to 6 M urea, 10 mM EDTA, 1 mM phenymethylsulfonyl fluoride (PMSF), 5 mM N-ethylmaleimide (NEM), 50 mM 6-aminocaproic acid, 5 mM benzamidine, and 1 μg/ml pepstatin A. Samples were stirred for 15 min at room temperature, then centrifuged at 10,000 rpm for 30 min to remove insoluble materials.
To the cell layer was added 2.0 ml of extraction solution, 6M urea, 100 mM NaCl, 0.2% Triton X-100, 50 mM Tris-HCl, pH 7.0, and protease inhibitors as described above. Cells were scraped off the dishes, and the extracts were pooled and stirred for 5 min at room temperature, and then centrifuged as described above.
Samples were concentrated on DEAE columns (DEAE Bio-Gel A Agarose, Bio-Rad Laboratories) equilibrated with low salt buffer, 0.1 M NaCl, 6 M urea, and 50 mM Tris-HCl, pH 7.0. Columns were rinsed with 10 ml of low salt buffer; flow through was discarded. Bound PGs/GAGs were eluted with 3 ml of high salt buffer, 1.5 M NaCl, 6 M urea, and 50 mM Tris-HCl, pH 7.0. Eluted samples were dialyzed against distilled water, lyophilized and stored at −20° C. until binding analysis.
Enzymatic Digestions of PGs—The contributions of PG GAG chain components to peptide binding affinities were assessed by selective enzymatic degradation of GAG chains prior to ACE analysis. ^35S-Na2SO4 labeled HUVEC PGs were digested with chondroitinase ABC, or heparatinase I (Seikagaku America, Ijamsville, Md.). […]

Row | heparin-binding affinity in words [2] | Substance | Percent Reversal of anti-Factor Xa Activity, Lovenox (Lovenox; peptide 0.6 mg/ml in plasma) | μg peptide/ml heparinized plasma needed to normalize thrombin time (unfractionated heparin [1]) | Percent Reversal of anti-Factor Xa Activity, Heparin (unfractionated) (unfractionated heparin [3]; peptide 0.6 mg/ml in plasma) | Percent Reversal of anti-Factor Xa Activity, Orgaran (Orgaran; peptide 0.6 mg/ml in plasma) | other results
1 | strong | AKKARAAKKARAAKKARAAKKARAAKKARAAKKARA [(AKKARA)6, XBBXBX tandem repeat peptide] | 82.5% | 5 μg peptide/ml heparinized plasma | 93% | 77% | Percent Reversal of anti-Factor Xa Activity, Lovenox (Lovenox; peptide 0.12 mg/ml in plasma): 86%; Percent Reversal of anti-Factor Xa Activity, Lovenox (Lovenox; peptide 0.4 mg/ml in plasma): 86.5%; Percent Reversal of anti-Factor Xa Activity, Heparin (unfractionated) (unfractionated heparin [3]; peptide 0.12 mg/ml in plasma): 99%; Percent Reversal of anti-Factor Xa Activity, Heparin (unfractionated) (unfractionated heparin [3]; peptide 0.4 mg/ml in plasma): 97.5%; Percent Reversal of anti-Factor Xa Activity, Orgaran (Orgaran; peptide 0.12 mg/ml in plasma): 74.5%; Percent Reversal of anti-Factor Xa Activity, Orgaran (Orgaran; peptide 0.4 mg/ml in plasma): 81.5%
2 | strong | AKKARAAKKARAAKKARAAKKARAAKKARA [(AKKARA)5, XBBXBX tandem repeat peptide] |  |  |  |  | 
3 |  | (ARKKAAKA)5 (ARKKAAKAARKKAAKAARKKAAKAARKKAAKAARKKAAKA; protein fragment) [XBBBXXBX tandem repeat peptide] | 81.5% | 21 μg peptide/ml heparinized plasma | 94.5% | 83.0% | Percent Reversal of anti-Factor Xa Activity, Lovenox (Lovenox; peptide 0.12 mg/ml in plasma): 68.5%; Percent Reversal of anti-Factor Xa Activity, Lovenox (Lovenox; peptide 0.4 mg/ml in plasma): 71.0%; Percent Reversal of anti-Factor Xa Activity, Heparin (unfractionated) (unfractionated heparin [3]; peptide 0.12 mg/ml in plasma): 64.5%; Percent Reversal of anti-Factor Xa Activity, Heparin (unfractionated) (unfractionated heparin [3]; peptide 0.4 mg/ml in plasma): 93.0%; Percent Reversal of anti-Factor Xa Activity, Orgaran (Orgaran; peptide 0.12 mg/ml in plasma): 75.0%; Percent Reversal of anti-Factor Xa Activity, Orgaran (Orgaran; peptide 0.4 mg/ml in plasma): 75.0%
4 |  | AAARRARAAAARAKA |  |  |  |  | decrease in heparin-binding affinity versus native mouse SG peptide ([2]; modified sequence versus YPARRARYQWVRCKP): 350 fold
5 |  | ARKKAAKAARKKPAKAARKKAAKA | 83.0% |  | 57.5% | 67.0% | 
6 |  | (ARKKPAKA)3 (ARKKPAKAARKKPAKAARKKPAKA; protein fragment) [proline in each tandem repeat in place of an alanine] | 100% |  | 99.0% | 66.5% | Percent Reversal of anti-Factor Xa Activity, Lovenox (Lovenox; peptide 0.12 mg/ml in plasma): 62.0%; Percent Reversal of anti-Factor Xa Activity, Lovenox (Lovenox; peptide 0.4 mg/ml in plasma): 62.5%; Percent Reversal of anti-Factor Xa Activity, Heparin (unfractionated) (unfractionated heparin [3]; peptide 0.12 mg/ml in plasma): 90.0%; Percent Reversal of anti-Factor Xa Activity, Heparin (unfractionated) (unfractionated heparin [3]; peptide 0.4 mg/ml in plasma): 50.0%; Percent Reversal of anti-Factor Xa Activity, Orgaran (Orgaran; peptide 0.12 mg/ml in plasma): 45.0%; Percent Reversal of anti-Factor Xa Activity, Orgaran (Orgaran; peptide 0.4 mg/ml in plasma): 67.5%
7 | moderate | AKKARAAKKARAAKKARAAKKARA [(AKKARA)4, XBBXBX tandem repeat peptide] | 73% | 10 μg peptide/ml heparinized plasma | 99% | 75% | 
8 |  | (ARKKAAKA)4 (ARKKAAKAARKKAAKAARKKAAKAARKKAAKA; protein fragment) [XBBBXXBX tandem repeat peptide] | 73% |  | 87.5% | 70.5% | pKd (HUVEC PGs; 35S-labeled secreted/total EC PGs, read-out: Kd for total (secreted) HUVEC PGs): ~6.52; Kd for HUVEC PGs devoid of CS GAGs via chondroitinase ABC (ABC) digestion (HUVEC PGs; chondroitinase ABC digested PGs): comparable affinity; pKd (HUVEC PGs; chondroitinase ABC digested PGs, read-out: Kd for HUVEC PGs devoid of CS GAGs via chondroitinase ABC (ABC) digestion): ~6.52; pKd (HUVEC PGs; free GAG chains of total PGs, read-out: Kd for GAG chains liberated from core protein by borohydride reduction (BH)): ~5.92; reduction in affinity after borohydride release of GAG chains (HUVEC PGs; free GAG chains versus intact PGs): 3 fold and 3-4 fold; Kd for HUVEC PGs devoid of HS GAGs via heparatinase I digestion (H) (HUVEC PGs; heparatinase I digested PGs): comparable affinity; pKd (HUVEC PGs; heparatinase I digested PGs, read-out: Kd for HUVEC PGs devoid of HS GAGs via heparatinase I digestion (H)): ~6.52; Kd for HUVEC PGs devoid of HS GAGs via nitrous acid treatment (NA) (HUVEC PGs; nitrous acid degraded PGs): comparable affinity; pKd (HUVEC PGs; nitrous acid degraded PGs, read-out: Kd for HUVEC PGs devoid of HS GAGs via nitrous acid treatment (NA)): ~6.52
9 |  | (ARRRAARA)3 [XBBBXXBX tandem repeat peptide] | 67.5% |  | 57.5% | 67.0% | 
10 | negligible | YPARRARYQWVRAKP [murine serglycin, cysteine replaced with alanine] | 0% |  | 25.0% | 2.0% | 
11 |  | YPTQRARYQWVRCNP | 0% | 100 μg peptide/ml heparinized plasma | 90% | 5% | effectiveness against Lovenox / low molecular weight heparin in vitro, in words (Lovenox; text summary of Table II): not against Lovenox; effectiveness against UFH / heparin in vitro, in words (unfractionated heparin [3]; text summary of Table II): highly effective; effectiveness against Orgaran in vitro, in words (Orgaran; text summary of Table II): highly effective
12 |  | (AKAAKKRA)3 (AKAAKKRAAKAAKKRAAKAAKKRA; protein fragment) [XBBBXXBX tandem repeat peptide, reversed orientation] | 93.5% | >50 μg peptide/ml heparinized plasma | 94.0% | 72.0% | 

Row | Substance | heparin-binding affinity in words [2] | Percent Reversal of anti-Factor Xa Activity, Lovenox (Lovenox; peptide 0.6 mg/ml in plasma) | μg peptide/ml heparinized plasma needed to normalize thrombin time (unfractionated heparin [1]) | Percent Reversal of anti-Factor Xa Activity, Heparin (unfractionated) (unfractionated heparin [3]; peptide 0.6 mg/ml in plasma) | Percent Reversal of anti-Factor Xa Activity, Orgaran (Orgaran; peptide 0.6 mg/ml in plasma) | other results
13 | AKKARA | do not bind heparin with a measurable affinity |  |  |  |  | 
14 | ARKKAAKA | do not bind heparin with a measurable affinity |  |  |  |  | 
